From ChEMBL document CHEMBL3576846, “Privileged Structures Meet Human T-Cell Leukemia Virus-1 (HTLV-1): C2-Symmetric 3,4-Disubstituted Pyrrolidines as Nonpeptidic HTLV-1 Protease Inhibitors” (J Med Chem, 2015)

Assay: Inhibition of HTLV-1 protease using (RE(Edans)TKVLVVQPK(Dabsyl)R) as substrate by fluorescence assay
Parameters: species or system Human T-cell leukemia virus type I

| Ki [µM] | SMILES |
| --- | --- |
| 7.9 | O=[N+]([O-])c1ccc(S(=O)(=O)N(Cc2ccccc2)[C@H]2CNC[C@@H]2N(Cc2ccccc2)S(=O)(=O)c2ccc([N+](=O)[O-])cc2)cc1 |
| 2.6 | Cc1ccccc1S(=O)(=O)N(Cc1ccccc1)[C@H]1CNC[C@@H]1N(Cc1ccccc1)S(=O)(=O)c1ccccc1C |
| 2.4 | O=S(=O)(c1ccccc1Cl)N(Cc1ccccc1)[C@H]1CNC[C@@H]1N(Cc1ccccc1)S(=O)(=O)c1ccccc1Cl |
| 172 | C=CCN([C@H]1CNC[C@@H]1N(CC=C)S(=O)(=O)c1ccccc1)S(=O)(=O)c1ccccc1 |
| 17.8 | C=C(C)CN([C@H]1CNC[C@@H]1N(CC(=C)C)S(=O)(=O)c1ccccc1)S(=O)(=O)c1ccccc1 |
| 0.015 | Nc1ccc(S(=O)(=O)N(Cc2ccccc2)[C@H]2CNC[C@@H]2N(Cc2ccccc2)S(=O)(=O)c2ccc(N)cc2)cc1 |
| > 200 | O=S(=O)(c1ccccc1)N(Cc1ccc(I)cc1)[C@H]1CNC[C@@H]1N(Cc1ccc(I)cc1)S(=O)(=O)c1ccccc1 |
| 11.6 | CC(C)=CCN([C@H]1CNC[C@@H]1N(CC=C(C)C)S(=O)(=O)c1ccccc1)S(=O)(=O)c1ccccc1 |
| 2 | O=S(=O)(c1ccccc1)N(Cc1ccccc1)[C@H]1CNC[C@@H]1N(Cc1ccccc1)S(=O)(=O)c1ccccc1 |
| > 250 | O=S(=O)(c1ccccc1)N(Cc1ccc(C(F)(F)F)cc1)[C@H]1CNC[C@@H]1N(Cc1ccc(C(F)(F)F)cc1)S(=O)(=O)c1ccccc1 |
